Reference: patent publication US11224243B2, “Taste-modifying combinations” (FIRMENICH SA, priority 2012, dated 2022)

Experiments:
[1] = system: umami taste; assay: Umami intensity and liking of amide 1, an ingredient and their blend in hot mineral water, trained panel; type: in vivo, human
Experimental: Pat. No. 7,807,206 (containing Rebaudioside A and stevioside), sea salt, succinic acid, yeast extract, hydrolyzed corn protein, or hydrolyzed wheat gluten) and a blend of the amide with the ingredient were weighed and hot mineral water was added to each sample according to the dosages indicated in each experiments. The samples were stirred in order to ensure the solubilisation of the ingredients. Each sample was coded, and tasted in a random order by 5 trained panelists. […] The panelists were also asked to describe the samples.

[2] = system: umami taste; assay: Evaluation of amides 1 and 4 in a pork flavor, trained panel; type: in vivo, human; settings: amide at 20 ppm in pork flavor; scale 0 to 10; 5 panelists; pork flavor alone = 4.5
Experimental: 3) Evaluation of Amides 1 and 4 in a Pork Flavor
Amides 1 and 4 were evaluated at 20 ppm by 5 trained panelists in a pork flavor on a blind test basis as described above.

[3] = Table 10, scale 1-10, MSG 0.04%, Amide 1 20 ppm, glucosylated stevosides 8 ppm, blend 20 ppm + 8 ppm
[4] = Table 11, scale 1-10, MSG 0.04%, Amide 1 20 ppm, Sea Salt 0.03%, blend 20 ppm + 0.03%
[5] = Table 12, scale 1-10, MSG 0.04%, Amide 1 20 ppm, Succinic acid 36 ppm, blend 20 ppm + 36 ppm
[6] = Table 13, scale 1-10, MSG 0.04%, Amide 1 20 ppm, Yeast extract 60 ppm, blend 20 ppm + 60 ppm
[7] = Table 14, scale 1-10, MSG 0.04%, Amide 1 20 ppm, Yeast extract 175 ppm, blend 20 ppm + 175 ppm
[8] = Table 15, scale 1-10, MSG 0.04%, Amide 1 10 ppm, Yeast extract 60 ppm, blend 10 ppm + 60 ppm
[9] = Table 16, scale 1-10, MSG 0.04%, Amide 1 20 ppm, Hydrolized corn protein 40 ppm, blend 20 ppm + 40 ppm
[10] = Table 17, scale 1-10, MSG 0.04%, Amide 1 20 ppm, Hydrolized corn protein 320 ppm, blend 20 ppm + 320 ppm
[11] = Table 18, scale 1-10, MSG 0.04%, Amide 1 20 ppm, Hydrolized wheat gluten 100 ppm, blend 20 ppm + 100 ppm
[12] = Table 19, scale 1-10, MSG 0.04%, Amide 1 10 ppm, Nature Pep 971481 100 ppm, blend 10 ppm + 100 ppm

Compound | Umami [1, 3] | Umami [1, 4] | Umami [1, 5] | Umami [1, 6] | Umami [1, 7] | Umami [1, 8] | Umami [1, 9] | Umami [1, 10] | Umami [1, 11] | Umami [1, 12] | Umami intensity [2]
N[C@@H](CCC(=O)O)C(=O)[O-].[Na+] [MSG, monosodium glutamate, reference compound] | 5.8 | 5.8 | 4.2 | 5.5 | 5.5 | 4.0 | 5.4 | 3.0 | 5.5 | 7.2 | –
COc1ccc(CCNC(=O)/C=C/c2ccc(OC)c(OC)c2)cc1 [Amide 1, (E)-3-(3,4-dimethoxyphenyl)-N-(4-methoxyphenethyl)acrylamide] | 4.8 | 3.3 | 3.7 | 4.5 | 4.5 | 2.5 | 4.2 | 1.7 | 4.0 | 3.7 | 6
O=C(O)CCC(=O)O [Succinic acid, succinic acid] | – | – | 1.0 | – | – | – | – | – | – | – | –
COc1cccc(CCNC(=O)/C=C/c2ccc(OC)c(OC)c2)c1 [Amide 4, (E)-3-(3,4-dimethoxyphenyl)-N-(3-methoxyphenethyl)acrylamide] | – | – | – | – | – | – | – | – | – | – | 7
